Experiments:
PIK3CG (human) = PIK3CG (human) (UniProt P48736); assay: Assessment of PIK3CG Kinase Activity
PIK3CD (Human) [1] = target: PIK3CD (Human) (UniProt O00329); assay: Enzyme Assay
PIK3CD (Human) [2] = target: PIK3CD (Human) (UniProt O00329); assay: Cell-Based Assay; settings: u937
PIK3CA (human) = PIK3CA (human) (UniProt P42336); assay: Assessment of PIK3CA Kinase Activity
PIK3CA (human), sequence (P42336 whole entry, looked up): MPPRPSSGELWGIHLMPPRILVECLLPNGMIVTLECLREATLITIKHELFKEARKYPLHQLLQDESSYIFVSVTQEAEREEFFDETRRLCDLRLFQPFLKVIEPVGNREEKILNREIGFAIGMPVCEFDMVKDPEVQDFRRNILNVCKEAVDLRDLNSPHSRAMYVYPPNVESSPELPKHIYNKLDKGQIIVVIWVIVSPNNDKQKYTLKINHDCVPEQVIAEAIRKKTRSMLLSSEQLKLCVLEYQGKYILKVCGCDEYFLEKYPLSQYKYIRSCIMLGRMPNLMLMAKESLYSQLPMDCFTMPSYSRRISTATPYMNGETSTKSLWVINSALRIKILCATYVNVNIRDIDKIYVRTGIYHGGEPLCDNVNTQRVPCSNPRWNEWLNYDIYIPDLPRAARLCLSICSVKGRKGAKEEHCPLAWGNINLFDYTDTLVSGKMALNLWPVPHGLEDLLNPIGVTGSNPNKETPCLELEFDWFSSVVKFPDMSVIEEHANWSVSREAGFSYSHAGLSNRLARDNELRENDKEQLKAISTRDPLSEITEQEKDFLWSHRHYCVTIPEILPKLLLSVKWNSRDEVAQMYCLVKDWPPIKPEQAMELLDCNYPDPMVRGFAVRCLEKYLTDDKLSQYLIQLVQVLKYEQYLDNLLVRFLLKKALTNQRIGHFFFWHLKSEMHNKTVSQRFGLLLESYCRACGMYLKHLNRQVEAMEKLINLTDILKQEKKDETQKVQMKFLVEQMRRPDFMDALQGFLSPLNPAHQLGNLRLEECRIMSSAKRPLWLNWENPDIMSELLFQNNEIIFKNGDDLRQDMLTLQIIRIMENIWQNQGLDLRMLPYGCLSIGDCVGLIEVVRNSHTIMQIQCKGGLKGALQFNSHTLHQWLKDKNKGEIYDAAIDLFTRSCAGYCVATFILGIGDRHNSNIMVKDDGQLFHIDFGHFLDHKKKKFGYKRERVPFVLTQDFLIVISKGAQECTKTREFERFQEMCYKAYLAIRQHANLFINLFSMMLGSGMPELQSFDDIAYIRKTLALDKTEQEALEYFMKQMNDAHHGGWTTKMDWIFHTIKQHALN

PIK3CD (Human), sequence (O00329 whole entry, looked up): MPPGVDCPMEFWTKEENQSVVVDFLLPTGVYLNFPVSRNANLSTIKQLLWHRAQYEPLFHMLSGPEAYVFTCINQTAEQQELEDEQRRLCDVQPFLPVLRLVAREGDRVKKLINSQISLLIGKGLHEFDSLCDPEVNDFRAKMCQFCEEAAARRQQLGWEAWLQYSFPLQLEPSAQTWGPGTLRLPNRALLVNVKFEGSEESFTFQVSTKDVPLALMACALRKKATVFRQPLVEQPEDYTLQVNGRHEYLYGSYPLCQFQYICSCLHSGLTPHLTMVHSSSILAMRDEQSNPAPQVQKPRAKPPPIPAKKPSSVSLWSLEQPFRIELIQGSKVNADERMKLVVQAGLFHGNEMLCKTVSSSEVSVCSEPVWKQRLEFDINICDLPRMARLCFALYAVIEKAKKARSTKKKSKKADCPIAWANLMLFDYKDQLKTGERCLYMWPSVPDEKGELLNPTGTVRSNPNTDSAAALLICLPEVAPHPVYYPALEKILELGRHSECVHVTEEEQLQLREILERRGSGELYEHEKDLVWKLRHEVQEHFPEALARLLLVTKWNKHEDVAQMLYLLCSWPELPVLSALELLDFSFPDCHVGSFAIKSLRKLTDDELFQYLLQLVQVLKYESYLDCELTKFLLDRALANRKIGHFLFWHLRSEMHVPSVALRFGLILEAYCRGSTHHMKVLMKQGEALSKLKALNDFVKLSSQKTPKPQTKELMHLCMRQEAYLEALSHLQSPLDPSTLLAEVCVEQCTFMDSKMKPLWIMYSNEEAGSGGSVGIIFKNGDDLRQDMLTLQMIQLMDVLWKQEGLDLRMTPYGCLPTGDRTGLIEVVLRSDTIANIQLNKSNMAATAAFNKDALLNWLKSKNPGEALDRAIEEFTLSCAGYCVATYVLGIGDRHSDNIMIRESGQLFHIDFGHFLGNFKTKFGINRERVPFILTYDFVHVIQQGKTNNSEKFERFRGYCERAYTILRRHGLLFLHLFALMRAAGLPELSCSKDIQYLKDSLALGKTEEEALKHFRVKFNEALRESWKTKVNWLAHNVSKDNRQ
PIK3CG (human), sequence (P48736 whole entry, looked up): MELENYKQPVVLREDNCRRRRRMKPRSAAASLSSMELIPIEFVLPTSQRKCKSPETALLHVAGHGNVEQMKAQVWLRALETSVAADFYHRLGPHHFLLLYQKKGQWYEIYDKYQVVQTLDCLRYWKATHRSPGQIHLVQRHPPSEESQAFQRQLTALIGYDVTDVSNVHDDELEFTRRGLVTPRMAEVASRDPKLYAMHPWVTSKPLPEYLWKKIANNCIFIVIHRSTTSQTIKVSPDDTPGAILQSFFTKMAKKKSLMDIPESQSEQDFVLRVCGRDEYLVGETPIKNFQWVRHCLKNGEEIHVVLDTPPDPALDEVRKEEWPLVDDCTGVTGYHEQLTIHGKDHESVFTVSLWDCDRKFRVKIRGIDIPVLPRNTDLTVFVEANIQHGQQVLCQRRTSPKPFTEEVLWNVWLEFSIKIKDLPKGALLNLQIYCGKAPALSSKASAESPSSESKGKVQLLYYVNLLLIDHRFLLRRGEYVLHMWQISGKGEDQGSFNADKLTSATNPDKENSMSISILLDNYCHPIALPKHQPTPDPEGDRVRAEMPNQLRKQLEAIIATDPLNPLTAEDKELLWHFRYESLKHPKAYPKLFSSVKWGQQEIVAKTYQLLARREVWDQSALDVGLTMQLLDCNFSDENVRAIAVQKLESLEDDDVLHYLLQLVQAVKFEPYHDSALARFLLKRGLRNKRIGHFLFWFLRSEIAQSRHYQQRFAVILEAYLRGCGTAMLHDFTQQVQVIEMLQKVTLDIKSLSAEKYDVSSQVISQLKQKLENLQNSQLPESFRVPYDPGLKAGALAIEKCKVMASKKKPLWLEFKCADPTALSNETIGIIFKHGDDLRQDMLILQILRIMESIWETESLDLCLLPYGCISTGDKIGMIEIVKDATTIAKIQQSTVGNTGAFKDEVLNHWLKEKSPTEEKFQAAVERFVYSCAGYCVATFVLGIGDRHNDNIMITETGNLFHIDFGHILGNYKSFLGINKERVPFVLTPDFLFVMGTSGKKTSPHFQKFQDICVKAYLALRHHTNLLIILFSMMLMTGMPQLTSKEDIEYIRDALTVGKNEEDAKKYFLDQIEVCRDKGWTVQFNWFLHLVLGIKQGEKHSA

Structure (SMILES) | IC50 (PIK3CG (human)) | IC50 (PIK3CD (Human) [1]) | IC50 (PIK3CD (Human) [2]) | IC50 (PIK3CA (human))
COCCOCCOCC#Cc1cccc2nc(Cn3nc(-c4cccc(O)c4)c4c(N)ncnc43)n(Cc3ccccc3Cl)c(=O)c12 | 50 to 1000 nM | < 50 nM | < 10 nM | –
C#Cc1cccc2nc(Cn3nc(-c4ccc(O)cc4)c4c(N)ncnc43)n(Cc3cccc(C#N)c3)c(=O)c12 | 50 to 1000 nM | < 50 nM | < 10 nM | 50 to 1000 nM
Cc1cnc(Cn2c(Cn3nc(-c4cccc(O)c4)c4c(N)ncnc43)nc3cccc(C#CCCCC(=O)N4CCOCC4)c3c2=O)cn1 | < 50 nM | < 50 nM | < 10 nM | 50 to 1000 nM
Nc1ncnc2c1c(-c1ccc(O)cc1)nn2Cc1nc2cccc(C#CCCCC(=O)NC3CCNC3)c2c(=O)n1Cc1ccccc1Cl (stereo not given) | < 50 nM | < 50 nM | < 10 nM | 1490 nM
CN(C)C(=O)CCCC#Cc1cccc2nc(Cn3nc(-c4ccc(O)cc4)c4c(N)ncnc43)n(Cc3ccccc3Cl)c(=O)c12 | – | – | < 10 nM | –
CC(=O)NCC(=O)NCC#Cc1cccc2nc(Cn3nc(-c4cccc(O)c4)c4c(N)ncnc43)n(Cc3ccccc3Cl)c(=O)c12 | < 50 nM | < 50 nM | < 10 nM | 50 to 1000 nM
C#Cc1cccc2nc(Cn3nc(-c4cccc(O)c4)c4c(N)ncnc43)n(Cc3cccc(C#N)c3)c(=O)c12 | – | – | < 10 nM | –
Nc1ncnc2c1c(-c1cccc(O)c1)nn2Cc1nc2cccc(C#CCCCCC(=O)N3CCOCC3)c2c(=O)n1Cc1ccccc1Cl | – | – | < 10 nM | –
Nc1ncnc2c1c(-c1cccc(O)c1)nn2Cc1nc2cccc(C#CCCNC(=O)N3CCOCC3)c2c(=O)n1Cc1ccccc1Cl | – | – | < 10 nM | –
C#Cc1cccc2nc(Cn3nc(-c4ccc(O)cc4)c4c(N)ncnc43)n(Cc3ccc(OC)cc3F)c(=O)c12 | – | – | < 10 nM | –
C#Cc1cccc2nc(Cn3nc(-c4cccc(O)c4)c4c(N)ncnc43)n(Cc3ccc(C(F)(F)F)cc3)c(=O)c12 | – | – | < 10 nM | –
Nc1ncnc2c1c(-c1ccc(O)cc1)nn2Cc1nc2cccc(C#CCCCC(=O)NC3CCOCC3)c2c(=O)n1Cc1ccccc1Cl | – | – | < 10 nM | –
Nc1ncnc2c1c(-c1cccc(O)c1)nn2Cc1nc2cccc(C#CCCC(=O)N3CCOCC3)c2c(=O)n1Cc1ccccc1Cl | – | – | < 10 nM | –
Cn1cc(Cn2c(Cn3nc(-c4cccc(O)c4)c4c(N)ncnc43)nc3cccc(C#CCCCC(=O)N4CCOCC4)c3c2=O)cn1 | – | – | < 10 nM | –
Nc1ncnc2c1c(-c1ccc(O)cc1)nn2Cc1nc2cccc(C#CCCCC(=O)N3CCCCC3)c2c(=O)n1Cc1ccccc1Cl | – | – | < 10 nM | –
Nc1ncnc2c1c(-c1cccc(O)c1)nn2Cc1nc2cccc(C#CCCCC(=O)N3CCOCC3)c2c(=O)n1Cc1ccc2occc2c1 | – | – | < 10 nM | –
C#Cc1cccc2nc(Cn3nc(-c4ccc(O)cc4)c4c(N)ncnc43)n(Cc3ccc(S(C)(=O)=O)cc3)c(=O)c12 | – | – | < 10 nM | –

Structure (SMILES) | IC50 (PIK3CG (human)) | IC50 (PIK3CD (Human) [1]) | IC50 (PIK3CD (Human) [2]) | IC50 (PIK3CA (human))
COCC#Cc1cccc2nc(Cn3nc(-c4cccc(O)c4)c4c(N)ncnc43)n(Cc3ccc(Cl)cc3)c(=O)c12 | – | – | < 10 nM | –
C#Cc1cccc2nc(Cn3nc(-c4cccc(O)c4)c4c(N)ncnc43)n(Cc3ccccc3F)c(=O)c12 | – | – | < 10 nM | –
CN(C)CCNC(=O)CCCC#Cc1cccc2nc(Cn3nc(-c4ccc(O)cc4)c4c(N)ncnc43)n(Cc3ccccc3Cl)c(=O)c12 | – | – | < 10 nM | –
C#Cc1cccc2nc(Cn3nc(-c4ccc(O)cc4)c4c(N)ncnc43)n(Cc3ccccc3F)c(=O)c12 | – | – | < 10 nM | –
COc1cc(-c2nn(Cc3nc4cccc(C#CCCCC(=O)N5CCOCC5)c4c(=O)n3Cc3ccccc3Cl)c3ncnc(N)c23)ccc1O | – | – | < 10 nM | –
COCCNC(=O)CCCC#Cc1cccc2nc(Cn3nc(-c4cccc(O)c4)c4c(N)ncnc43)n(Cc3ccccc3Cl)c(=O)c12 | – | – | < 10 nM | –
COCCN(CCCC#Cc1cccc2nc(Cn3nc(-c4ccc(O)cc4)c4c(N)ncnc43)n(Cc3ccccc3Cl)c(=O)c12)CCOC | – | – | < 10 nM | –
C#Cc1cccc2nc(Cn3nc(-c4ccc(O)cc4)c4c(N)ncnc43)n(Cc3ccc(F)cc3)c(=O)c12 | – | – | < 10 nM | –
COc1cccc(Cn2c(Cn3nc(-c4ccc(O)cc4)c4c(N)ncnc43)nc3cccc(C#CCCCC(=O)N4CCOCC4)c3c2=O)c1F | – | – | < 10 nM | –
C#Cc1cccc2nc(Cn3nc(-c4ccc(O)cc4)c4c(N)ncnc43)n(Cc3cccc(Cl)c3F)c(=O)c12 | – | – | < 10 nM | –
C#Cc1cccc2nc(Cn3nc(-c4ccc(O)cc4)c4c(N)ncnc43)n(Cc3ccc(C(F)(F)F)cc3)c(=O)c12 | – | – | < 10 nM | –
C#Cc1cccc2nc(Cn3nc(-c4ccc(O)c(F)c4)c4c(N)ncnc43)n(Cc3ccccc3Cl)c(=O)c12 | – | – | < 10 nM | –
C#Cc1cccc2nc(Cn3nc(-c4ccc(O)cc4)c4c(N)ncnc43)n(Cc3ccc(C#N)cc3)c(=O)c12 | – | – | < 10 nM | –
Nc1ncnc2c1c(-c1ccc(O)cc1)nn2Cc1nc2cccc(C#CCCCC(=O)Nc3ccncc3)c2c(=O)n1Cc1ccccc1Cl | – | – | < 10 nM | –
Cc1nc(Cn2c(Cn3nc(-c4cccc(O)c4)c4c(N)ncnc43)nc3cccc(C#CCCCC(=O)N4CCOCC4)c3c2=O)cs1 | – | – | < 10 nM | –
COCCOCC#Cc1cccc2nc(Cn3nc(-c4cccc(O)c4)c4c(N)ncnc43)n(Cc3ccccc3Cl)c(=O)c12 | 50 to 1000 nM | < 50 nM | < 10 nM | 50 to 1000 nM

Source: the Kinase Knowledgebase extract (Sharma et al. 2016)
